In patent US11987588B2, “Modulators of the beta-3 adrenergic receptor useful for the treatment or prevention of heart failure and disorders related thereto” (Arena Pharmaceuticals, Inc., priority 2017, dated 2024):
pIC50: −log10 of the molar value.

target: Beta-3 Adrenergic Receptor (Homo sapiens (Human), UniProt P13945); assay: Homogeneous Time-Resolved Fluorescence (HTRF) cAMP antagonist assay, IC50 determination; assay type: cell-based; settings: CHO-K1 cells stably expressing recombinant receptor, isoproterenol at EC90
Summary of the method: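 Antagonist mode: isoproterenol at its predetermined EC90 added after compound to recombinant CHO-K1 cells in IBMX-containing PBS, 1 h, room temperature. Compounds tested as 5-fold, 10-point dilutions, top final typically 10 or 100 μM. HTRF signal converted to cAMP via standard curve, giving IC50.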

Beta-3 Adrenergic Receptor, sequence (P13945 whole entry, species assumed): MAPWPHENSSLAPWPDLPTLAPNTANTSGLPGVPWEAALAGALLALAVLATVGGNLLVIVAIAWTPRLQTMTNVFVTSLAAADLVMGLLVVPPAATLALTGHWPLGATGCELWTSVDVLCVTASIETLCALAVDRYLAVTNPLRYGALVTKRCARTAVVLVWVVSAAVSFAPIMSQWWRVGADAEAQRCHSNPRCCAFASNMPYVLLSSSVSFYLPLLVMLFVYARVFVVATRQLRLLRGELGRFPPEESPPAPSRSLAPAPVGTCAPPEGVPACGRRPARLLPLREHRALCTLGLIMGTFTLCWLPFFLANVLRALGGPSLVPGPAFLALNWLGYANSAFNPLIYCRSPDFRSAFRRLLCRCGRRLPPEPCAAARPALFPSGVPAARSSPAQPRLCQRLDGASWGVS

SMILES | pIC50
CNS(=O)(=O)c1cccc(OC[C@@H](O)CNC2COC3(CCN(S(=O)(=O)c4cc(Cl)ccc4Cl)CC3)C2)c1 (stereo partly drawn) [Compound 140, 3-((2S)-3-(8-(2,5-dichlorophenylsulfonyl)-1-oxa-8-azaspiro[4.5]decan-3-ylamino)-2-hydroxypropoxy)-N-methylbenzenesulfonamide] | 7.95
CNS(=O)(=O)c1cccc(OC[C@@H](O)CNC2COC3(CCN(S(=O)(=O)c4ccc(F)c(F)c4)CC3)C2)c1 (stereo partly drawn) [Compound 141, 3-((2S)-3-(8-(3,4-difluorophenylsulfonyl)-1-oxa-8-azaspiro[4.5]decan-3-ylamino)-2-hydroxypropoxy)-N-methylbenzenesulfonamide] | 7.45
CNS(=O)(=O)c1cccc(OC[C@@H](O)CNC2COC3(CCN(S(=O)(=O)c4cccc(Cl)c4Cl)CC3)C2)c1 (stereo partly drawn) [Compound 142, 3-((2S)-3-(8-(2,3-dichlorophenylsulfonyl)-1-oxa-8-azaspiro[4.5]decan-3-ylamino)-2-hydroxypropoxy)-N-methylbenzenesulfonamide] | 7.77
CNS(=O)(=O)c1cccc(OC[C@@H](O)CNC2COC3(CCN(S(=O)(=O)c4cccc(Cl)c4C)CC3)C2)c1 (stereo partly drawn) [Compound 143, 3-((2S)-3-(8-(3-chloro-2-methylphenylsulfonyl)-1-oxa-8-azaspiro[4.5]decan-3-ylamino)-2-hydroxypropoxy)-N-methylbenzenesulfonamide] | 7.77
CNS(=O)(=O)c1cccc(OC[C@@H](O)CNC2COC3(CCN(S(=O)(=O)c4cc(Cl)ccc4F)CC3)C2)c1 (stereo partly drawn) [Compound 144, 3-((2S)-3-(8-(5-chloro-2-fluorophenylsulfonyl)-1-oxa-8-azaspiro[4.5]decan-3-ylamino)-2-hydroxypropoxy)-N-methylbenzenesulfonamide] | 7.91
CNS(=O)(=O)c1cccc(OC[C@@H](O)CNC2COC3(CCN(S(=O)(=O)c4cc(Cl)ccc4C#N)CC3)C2)c1 (stereo partly drawn) [Compound 145, 3-((2S)-3-(8-(5-chloro-2-cyanophenylsulfonyl)-1-oxa-8-azaspiro[4.5]decan-3-ylamino)-2-hydroxypropoxy)-N-methylbenzenesulfonamide] | 7.67
CNS(=O)(=O)c1cccc(OC[C@@H](O)CNC2COC3(CCN(S(=O)(=O)c4ccc5nc[nH]c5c4)CC3)C2)c1 (stereo partly drawn) [Compound 146, 3-((2S)-3-(8-(1H-benzo[d]imidazol-6-ylsulfonyl)-1-oxa-8-azaspiro[4.5]decan-3-ylamino)-2-hydroxypropoxy)-N-methylbenzenesulfonamide] | 7.44
CNS(=O)(=O)c1cccc(OC[C@@H](O)CNC2COC3(CCN(S(=O)(=O)c4ccc(OC)c(C)c4)CC3)C2)c1 (stereo partly drawn) [Compound 147, 3-((2S)-2-hydroxy-3-(8-(4-methoxy-3-methylphenylsulfonyl)-1-oxa-8-azaspiro[4.5]decan-3-ylamino)propoxy)-N-methylbenzenesulfonamide] | 7.89
CNS(=O)(=O)c1cccc(OC[C@@H](O)CNC2COC3(CCN(S(=O)(=O)c4cc(Cl)ccc4OC)CC3)C2)c1 (stereo partly drawn) [Compound 148, 3-((2S)-3-(8-(5-chloro-2-methoxyphenylsulfonyl)-1-oxa-8-azaspiro[4.5]decan-3-ylamino)-2-hydroxypropoxy)-N-methylbenzenesulfonamide] | 7.96
CNS(=O)(=O)c1cccc(OC[C@@H](O)CNC2COC3(CCN(S(=O)(=O)c4ccc(F)c(C)c4)CC3)C2)c1 (stereo partly drawn) [Compound 149, 3-((2S)-3-(8-(4-fluoro-3-methylphenylsulfonyl)-1-oxa-8-azaspiro[4.5]decan-3-ylamino)-2-hydroxypropoxy)-N-methylbenzenesulfonamide] | 7.69
CNS(=O)(=O)c1cccc(OC[C@@H](O)CNC2COC3(CCN(S(=O)(=O)c4cc(C)ccc4F)CC3)C2)c1 (stereo partly drawn) [Compound 150, 3-((2S)-3-(8-(2-fluoro-5-methylphenylsulfonyl)-1-oxa-8-azaspiro[4.5]decan-3-ylamino)-2-hydroxypropoxy)-N-methylbenzenesulfonamide] | 7.87
CNS(=O)(=O)c1cccc(OC[C@@H](O)CNC2COC3(CCN(S(=O)(=O)c4ccc(Cl)c(C)c4)CC3)C2)c1 (stereo partly drawn) [Compound 151, 3-((2S)-3-(8-(4-chloro-3-methylphenylsulfonyl)-1-oxa-8-azaspiro[4.5]decan-3-ylamino)-2-hydroxypropoxy)-N-methylbenzenesulfonamide] | 8.27
CNS(=O)(=O)c1cccc(OC[C@@H](O)CNC2COC3(CCN(S(=O)(=O)c4cn(C)nc4C(F)(F)F)CC3)C2)c1 (stereo partly drawn) [Compound 152, 3-((2S)-2-hydroxy-3-(8-(1-methyl-3-(trifluoromethyl)-1H-pyrazol-4-ylsulfonyl)-1-oxa-8-azaspiro[4.5]decan-3-ylamino)propoxy)-N-methylbenzenesulfonamide] | 7.04
CNS(=O)(=O)c1cccc(OC[C@@H](O)CNC2COC3(CCN(S(=O)(=O)c4ccc(OC)c(OC)c4)CC3)C2)c1 (stereo partly drawn) [Compound 153, 3-((2S)-3-(8-(3,4-dimethoxyphenylsulfonyl)-1-oxa-8-azaspiro[4.5]decan-3-ylamino)-2-hydroxypropoxy)-N-methylbenzenesulfonamide] | 7.36
CNS(=O)(=O)c1cccc(OC[C@@H](O)CNC2COC3(CCN(S(=O)(=O)c4cc(C)ccc4C)CC3)C2)c1 (stereo partly drawn) [Compound 154, 3-((2S)-3-(8-(2,5-dimethylphenylsulfonyl)-1-oxa-8-azaspiro[4.5]decan-3-ylamino)-2-hydroxypropoxy)-N-methylbenzenesulfonamide] | 7.46
CNS(=O)(=O)c1cccc(OC[C@@H](O)CNC2COC3(CCN(S(=O)(=O)c4ccc(Br)c(Cl)c4)CC3)C2)c1 (stereo partly drawn) [Compound 155, 3-((2S)-3-(8-(4-bromo-3-chlorophenylsulfonyl)-1-oxa-8-azaspiro[4.5]decan-3-ylamino)-2-hydroxypropoxy)-N-methylbenzenesulfonamide] | 8.36
CNS(=O)(=O)c1cccc(OC[C@@H](O)CNC2COC3(CCN(S(=O)(=O)c4c(F)cccc4F)CC3)C2)c1 (stereo partly drawn) [Compound 156, 3-((2S)-3-(8-(2,6-difluorophenylsulfonyl)-1-oxa-8-azaspiro[4.5]decan-3-ylamino)-2-hydroxypropoxy)-N-methylbenzenesulfonamide] | 7.60
CNS(=O)(=O)c1cccc(OC[C@@H](O)CNC2COC3(CCN(S(=O)(=O)c4ccc(C#N)cc4Cl)CC3)C2)c1 (stereo partly drawn) [Compound 157, 3-((2S)-3-(8-(2-chloro-4-cyanophenylsulfonyl)-1-oxa-8-azaspiro[4.5]decan-3-ylamino)-2-hydroxypropoxy)-N-methylbenzenesulfonamide] | 7.58
CNS(=O)(=O)c1cccc(OC[C@@H](O)CNC2COC3(CCN(S(=O)(=O)c4ccc(Cl)cc4Cl)CC3)C2)c1 (stereo partly drawn) [Compound 158, 3-((2S)-3-(8-(2,4-dichlorophenylsulfonyl)-1-oxa-8-azaspiro[4.5]decan-3-ylamino)-2-hydroxypropoxy)-N-methylbenzenesulfonamide] | 7.59
CNS(=O)(=O)c1cccc(OC[C@@H](O)CNC2COC3(CCN(S(=O)(=O)c4ccc(Br)c(C)c4)CC3)C2)c1 (stereo partly drawn) [Compound 159, 3-((2S)-3-(8-(4-bromo-3-methylphenylsulfonyl)-1-oxa-8-azaspiro[4.5]decan-3-ylamino)-2-hydroxypropoxy)-N-methylbenzenesulfonamide] | 8.32
CNS(=O)(=O)c1cccc(OC[C@@H](O)CNC2COC3(CCN(S(=O)(=O)c4cccc(C)c4F)CC3)C2)c1 (stereo partly drawn) [Compound 160, 3-((2S)-3-(8-(2-fluoro-3-methylphenylsulfonyl)-1-oxa-8-azaspiro[4.5]decan-3-ylamino)-2-hydroxypropoxy)-N-methylbenzenesulfonamide] | 7.84
CNS(=O)(=O)c1cccc(OC[C@@H](O)CNC2COC3(CCN(S(=O)(=O)c4cccc(Oc5ccc(C(F)(F)F)cc5)c4)CC3)C2)c1 (stereo partly drawn) [Compound 161, 3-((2S)-2-hydroxy-3-(8-(3-(4-(trifluoromethyl)phenoxy)phenylsulfonyl)-1-oxa-8-azaspiro[4.5]decan-3-ylamino)propoxy)-N-methylbenzenesulfonamide] | 7.08
CNS(=O)(=O)c1cccc(OC[C@@H](O)CNC2COC3(CCN(S(=O)(=O)c4cc(C)oc4C(F)(F)F)CC3)C2)c1 (stereo partly drawn) [Compound 162, 3-((2S)-2-hydroxy-3-(8-(5-methyl-2-(trifluoromethyl)furan-3-ylsulfonyl)-1-oxa-8-azaspiro[4.5]decan-3-ylamino)propoxy)-N-methylbenzenesulfonamide] | 7.37
CNS(=O)(=O)c1cccc(OC[C@@H](O)CNC2COC3(CCN(S(=O)(=O)c4c(C)nn(C)c4Cl)CC3)C2)c1 (stereo partly drawn) [Compound 163, 3-((2S)-3-(8-(5-chloro-1,3-dimethyl-1H-pyrazol-4-ylsulfonyl)-1-oxa-8-azaspiro[4.5]decan-3-ylamino)-2-hydroxypropoxy)-N-methylbenzenesulfonamide] | 7.19
O=C1CCCN1CCNS(=O)(=O)c1cccc(OC[C@@H](O)CNC2COC3(CCN(S(=O)(=O)c4ccc5ccccc5c4)CC3)C2)c1 (stereo partly drawn) [Compound 164, 3-((2S)-2-hydroxy-3-(8-(naphthalen-2-ylsulfonyl)-1-oxa-8-azaspiro[4.5]decan-3-ylamino)propoxy)-N-(2-(2-oxopyrrolidin-1-yl)ethyl)benzenesulfonamide] | 7.07
CCN1CCC(NS(=O)(=O)c2cccc(OC[C@@H](O)CNC3COC4(CCN(S(=O)(=O)c5ccc6ccccc6c5)CC4)C3)c2)CC1 (stereo partly drawn) [Compound 165, N-(1-ethylpiperidin-4-yl)-3-((2S)-2-hydroxy-3-(8-(naphthalen-2-ylsulfonyl)-1-oxa-8-azaspiro[4.5]decan-3-ylamino)propoxy)benzenesulfonamide] | 6.51
O=S(=O)(NC[C@H](O)CO)c1cccc(OC[C@@H](O)CNC2COC3(CCN(S(=O)(=O)c4ccc5ccccc5c4)CC3)C2)c1 (stereo partly drawn) [Compound 166, N—((S)-2,3-dihydroxypropyl)-3-((2S)-2-hydroxy-3-(8-(naphthalen-2-ylsulfonyl)-1-oxa-8-azaspiro[4.5]decan-3-ylamino)propoxy)benzenesulfonamide] | 6.84
